Source: patent publication US20240124456A1, “AZA-ERGOLINE DERIVATIVE AND PREPARATION METHOD THEREFOR AND APPLICATION THEREOF” (SHANGHAITECH UNIVERSITY, priority 2021, published 2024)

Tests used:
dopamine D2 receptors [1] = target: T1, dopamine D2 receptors (Homo sapiens (Human), UniProt P14416); test: G protein Gαi1-γ9 dissociation BRET, dopamine D2 receptor functional activity; assay type: cell-based; settings: for Emax: relative to the endogenous ligand dopamine, read-out: Gai1 BRET Emax % ± SEM
T1 sequence (P14416 whole entry, the tested form may be a part): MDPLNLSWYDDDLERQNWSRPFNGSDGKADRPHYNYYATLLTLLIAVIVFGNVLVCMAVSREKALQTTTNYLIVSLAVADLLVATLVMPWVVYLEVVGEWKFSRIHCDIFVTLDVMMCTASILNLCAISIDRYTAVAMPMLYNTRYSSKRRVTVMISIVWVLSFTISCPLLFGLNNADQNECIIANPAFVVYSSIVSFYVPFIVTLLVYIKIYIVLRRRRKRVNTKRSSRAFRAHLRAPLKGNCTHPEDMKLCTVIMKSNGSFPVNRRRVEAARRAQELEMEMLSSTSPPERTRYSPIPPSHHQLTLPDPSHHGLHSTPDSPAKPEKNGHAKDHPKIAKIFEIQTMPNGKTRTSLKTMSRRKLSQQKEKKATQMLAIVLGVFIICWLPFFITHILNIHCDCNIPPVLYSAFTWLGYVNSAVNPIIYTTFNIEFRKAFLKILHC
Experimental: To examine downstream G protein signaling mediated by dopamine D2 receptors, 6 cm dish was used for transfection with 1μg of dopamine D2 receptors, 1μg of Gαi1 fused to seaweed luciferase (Gαi1-Rluc), 1 μg of Gβ3, 1 μg of Gγ9 fused to green fluorescent protein (Gγ9-GFP) and 16 μL of transfection reagent PEI. […] On the third day, the drugs were added for test.
(§1) To examine downstream G-protein signaling pathway mediated by dopamine D2 receptors, on the first day, 6 cm dish was used for transfection with 1μg of dopamine D2 receptors, 1μg of Gαi1 containing C-terminal seaweed luciferase (GGαi1-Rluc), 1 μg of […], 1 μg of Gγ9 containing C-terminal green fluorescent protein (Gγ9-GFP) and 16 μL of PEI. At the same time, in order to examine the downstream f3-arrestin2 signaling pathway mediated by dopamine D2 receptors, on the first day, 6 cm dish was used for transfection with 500 μg of dopamine D2 receptors containing C-terminal seaweed luciferase (D2-Rluc), 500 μg of G protein-coupled receptor kinase 2 (GRK2), 2500 μg of […] containing N-terminal green fluorescent protein (GFP2-ARRB2) and 14 μL of PEI. The next day, the overgrown cells were digested and plated a 96-well plate at the amount of cells contained in a 6 cm culture dish with overgrown cells, and 100 μL of culture medium was added to each well. On the third day, the drugs were added for test. The 96-well plate was taken out from the cell culture room to remove the culture medium, 40 μL of the substrate coelenterazine 400a (final concentration of 5 μM) was added to each well, and then 20 μL of different drugs were added in turn from left to right to ensure that the final concentration of the drugs decreased gradually from bottom to top, and each treatment was repeated twice. Finally, the prepared samples were loaded on machine for test. The machine reading value reflected the intracellular β-arrestin2 on the membrane and the dissociation of G protein trimer. The former indicated the degree of activation of the β-arrestin2 signaling pathway downstream of the dopamine D2 receptors, and the latter indicated the degree of activation of the G protein signaling pathway downstream of the dopamine D2 receptors.

dopamine D2 receptors [2] = target: T1, dopamine D2 receptors; test: β-arrestin2 recruitment BRET, dopamine D2 receptor functional activity; assay type: cell-based; settings: for Emax: relative to the endogenous ligand dopamine, read-out: β-arrestin2 BRET Emax % ± SEM
Experimental: To examine the downstream f3-arrestin2 signaling pathway mediated by dopamine D2 receptors, 6 cm dish was used for transfection with 500 […] of dopamine D2 receptors fused to seaweed luciferase (D2-Rluc), 500 μg of G protein-coupled receptor kinase 2 (GRK2), 2500 μg of β-arrestin2 fused to green fluorescent protein (GFP2-ARRB2) and 14 μL of transfection reagent PEI. The next day, the overgrown cells were digested and plated a 96-well plate at the amount of cells contained in a 6 cm culture dish with overgrown cells, and 100 μL of culture medium was added to each well. On the third day, the drugs were added for test.
as §1

[3] = HEK-293T, I-1 to 19 n=3, I-20 to 27 single determination, read-out: Gai1 BRET EC50
[4] = HEK-293T, I-1 to 19 n=3, I-20 to 27 single determination, read-out: β-arrestin2 BRET EC50
[5] = antagonistic activity, single determination, read-out: Gai1 BRET EC50 (antagonistic activity)

Row | Structure (SMILES) | EC50 (dopamine D2 receptors [1]; [3]) [nM] | Emax (dopamine D2 receptors [1]) [%] | EC50 (dopamine D2 receptors [2]; [4]) [nM] | Emax (dopamine D2 receptors [2]) [%] | EC50 (dopamine D2 receptors [1]; [5]) [nM] | EC50 (dopamine D2 receptors [2]; antagonistic activity, single determination, read-out: β-arrestin2 BRET EC50 (antagonistic activity)) [nM] | β-arrestin2 BRET EC50 (dopamine D2 receptors [2]; HEK-293T, I-1 to 19 n=3, I-20 to 27 single determination)
1 | O=C1CCc2ccc(OC/C=C/CN3CCN4c5cccc6[nH]cc(c56)CC4C3)cc2N1 (stereo not shown) [Compound I-20] | 10.2 | 74 | 98.2 | 88 | – | – | –
2 | c1cc2c3c(c[nH]c3c1)CC1CN(CCCOc3ccc4c(c3)OCO4)CCN21 (stereo not shown) [Compound I-9, 8-(3-(benzo[d][1,3]dioxo1-5-yloxy)propyl)-6,6a,7,8,9,10-hexahydro-4H-pyrazino[1,2-a]pyrrolo[4,3,2-de]quinoline] | 166 | 92 | 148 | 96 | – | – | –
3 | Cn1cc2c3c(cccc31)N1CCN(CCCC(O)c3ccc(F)cc3)CC1C2 (stereo not shown) [Compound I-27, 1-(4-fluorobenzene)-4-(4-methyl-4,6,6a,7,9,10-hexahydro-8H-pyrazino[1,2-a]pyrrolo[4,3,2-de]quinolin-8-yl)-1-butanol] | – | – | – | – | 1200 | 1540 | –
4 | O=c1ccc2ccc(OC/C=C/CN3CCN4c5cccc6[nH]cc(c56)CC4C3)cc2[nH]1 (stereo not shown) [Compound I-21] | 7.71 | 77 | 61.9 | 90 | – | – | –
5 | Cn1cc2c3c(cccc31)N1CCN(CCCC(=O)c3ccc(F)cc3)CC1C2 (stereo not shown) [Compound I-26, 1-(4-fluorobenzene)-4-(4-methyl-4,6,6a,7,9,10-hexahydro-8H-pyrazino[1,2-a]pyrrolo[4,3,2-de]quinolin-8-yl)-1-butanone] | – | – | – | – | 7620 | – | Inactive
6 | CN(C)C(=O)N[C@H]1CC[C@H](CN2CCN3c4cccc5[nH]cc(c45)CC3C2)CC1 (stereo partly shown) [Compound I-16] | 58.9 | 84 | 40.7 | 90 | – | – | –
7 | OC(CCCN1CCN2c3cccc4[nH]cc(c34)CC2C1)c1ccc(F)cc1 (stereo not shown) [Compound I-25, 1-(4-fluorobenzene)-4-(4,6,6a,7,9,10-hexahydro-8H-pyrazino[1,2-a]pyrrolo[4,3,2-de]quinolin-8-yl)-1-butanol] | 7.48 | 29 | 9.6 | 30 | – | – | –
8 | O=C(CCCN1CCN2c3cccc4[nH]cc(c34)CC2C1)c1ccc(F)cc1 (stereo not shown) [Compound I-24, 1-(4-fluorobenzene)-4-(4,6,6a,7,9,10-hexahydro-8H-pyrazino[1,2-a]pyrrolo[4,3,2-de]quinolin-8-yl)-1-butanone] | 11.4 | 38 | 10.4 | 26 | – | – | –
